Measured values taken from PMC12809504, “Polo-like kinase 1–inhibitor co-complex structures via the surface-entropy reduction approach and a DARPin-assisted approach” (Acta Crystallographica Section D: Structural Biology, 2025).

How the values were obtained:
[1] = molecular target: T1, Polo-like kinase 1 (PLK1) (Homo sapiens, UniProt P53350); assay: TR-FRET kinase-activity assay, […] ATP; type: biochemical; parameters: kinase domain, residues 33–345, PLK1^WT
[2] = molecular target: T1, Polo-like kinase 1 (PLK1); assay: (soak, […] Å); IC50 by TR-FRET kinase assay at […] ATP; type: biochemical; parameters: kinase domain, residues 33–345 (Ala33–Lys345), PLK1^WT; with DARPin 3H10 (crystal structure only)

T1 sequence (P53350 33-345): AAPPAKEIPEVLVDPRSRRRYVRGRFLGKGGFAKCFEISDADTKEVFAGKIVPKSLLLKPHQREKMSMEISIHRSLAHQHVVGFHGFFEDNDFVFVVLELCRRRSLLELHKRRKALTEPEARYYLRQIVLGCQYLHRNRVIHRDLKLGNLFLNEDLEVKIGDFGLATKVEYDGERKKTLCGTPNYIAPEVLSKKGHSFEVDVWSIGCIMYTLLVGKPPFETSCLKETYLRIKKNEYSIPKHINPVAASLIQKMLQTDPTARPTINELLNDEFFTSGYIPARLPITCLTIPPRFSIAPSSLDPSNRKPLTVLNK

| IC50 [1] | SMILES | IC50 [2] |
| --- | --- | --- |
| 178 ± 52.6 nM | CCn1c(=C(C#N)C(=O)NCC(F)(F)F)sc(=CNc2cccc(CCN3CCCC3)c2)c1=O [ZK-Thiazolidinone] | – |
| – | CCn1c(=O)c(=CNc2ccnc(N(C)C3CCN(C)CC3)c2)s/c1=C(/C#N)C(=O)NCC(F)(F)F [compound 1, (2Z)-2-cyano-2-{3-ethyl-5-[({2-[methyl(1-methylpiperidin-4-yl)amino]pyridin-4-yl}amino)methylidene]-4-oxo-1,3-thiazolidin-2-ylidene}-N-(2,2,2-trifluoroethyl)acetamide] | 3.6 ± 2.3 nM |
